Columns and labels:
HIV-1 [1] = test: Anti-HIV-1 assay in HUT-78 cells, expression of viral antigen; assay type: cell-based; conditions: for SI: Selective index / EC50: HUT-78 cells; for EC50: Human immunodeficiency virus 1, HuT78, HIV-1 antigen expression, read-out: ED50 a: Antiviral 50% effective dose
HIV-1 [2] = test: Anti-HIV-1 assay in MT-4 cells, inhibition of viral cytopathogenicity; assay type: cell-based; conditions: for EC50: Human immunodeficiency virus 1, MT4, HIV-1, cytopathogenic effect, read-out: ED50 a: Antiviral 50% effective dose; for EC50 / SI: Selective index: MT-4 cells
in vitro = conditions: human
Protocol: Anti-HIV assays of fuchsinic acid were carried out in cultures of MT-4 and HUT-78 cells infected with AIDS-causing viruses such as HIV type 1 (HIV-1) and HIV type 2 (HIV-2), taking cytopathogenicity as a parameter of the inhibitory effect on replication of the viruses. The anti-HIV activity was also measured by monitoring the expression of viral antigen.

HIV-2 = test: Anti-HIV-2 assay in MT-4 cells, inhibition of viral cytopathogenicity; assay type: cell-based; conditions: Human immunodeficiency virus 2, MT4; HIV-2, MT-4 cells, cytopathogenic effect; read-out: 50% effective dose (ED50) for HIV-2

Compound | SI: Selective index (HIV-1 [1]) | EC50 (HIV-1 [1]) [µM] | EC50 (HIV-1 [2]) [µM] | SI: Selective index (HIV-1 [2]) | CC50 (in vitro; hut-78 cells) [µM] | CC50 (in vitro; mt-4 cells) [µM] | Inhibition of HIV-1 antigen (HIV-1 [1]; at 25 μM) | EC50 (HIV-2) [µM] | Inhibition of cytopathogenic effect (CPE) (HIV-1 [2]; HIV-1, MT-4 cells, at 125 μM (FIG. 1-A))
O=C(O)C1=CC(=C(c2ccc(O)c(C(=O)O)c2)c2ccc(O)c(C(=O)O)c2)C=CC1=O [ATA, Aurintricarboxylic acid] | 19 | 0.69 | 5 | 118 | 13 | 590 |  |  | 
O=C1C=CC(=C(c2ccc(O)cc2)c2ccc(O)cc2)C=C1 [Aurin] | < 1 | > 2.3 | > 2.6 | < 1 | 2.3 | 2.6 |  |  | 
Cc1cc(C(=C2C=CC(=N)C(S(=O)(=O)O)=C2)c2ccc(N)c(S(=O)(=O)O)c2)cc(S(=O)(=O)O)c1N [Fuchsinic acid] | < 39 | 16 | 42 | < 74 | > 625 | > 3120 | inhibited | 63 | complete inhibition
Cc1ccc(C(=O)Nc2ccc(S(=O)(=O)O)c3cc(S(=O)(=O)O)cc(S(=O)(=O)O)c23)cc1NC(=O)c1cccc(NC(=O)Nc2cccc(C(=O)Nc3cc(C(=O)Nc4ccc(S(=O)(=O)O)c5cc(S(=O)(=O)O)cc(S(=O)(=O)O)c45)ccc3C)c2)c1 [Suramin] | 3.1 | 18 | 32 | 20 | 55 | 625 |  |  | 

From patent US5596018A, “Antiviral agents against aids-causing virus” (priority 1988, dated 1997)
